Tests used:
Assay type in all cases: cell-based
PC12 cells [1] = test: ROS in PC12 cells, CellROX green / DAPI staining after H2O2; conditions: 400 μM H2O2 for 4 hours, FIG. 5A
Protocol: PC12 cells stained with CellROX and DAPI-blue nuclear stain. Greater intensity of green fluorescence indicates greater levels of ROS. Visualized through a microscope (40× magnification, bar=100 μM).
While flupirtine and retigabine are known antioxidants the inventors have shown (FIGS. 5A and 5B) that neuroprotective derivatives operate by a different mechanism of action. […] PC12 cells stained with CellROX and DAPI-blue nuclear stain. Greater intensity of green fluorescence indicates greater levels of ROS. Visualized through a microscope (40× magnification, bar=100 μM).

PC12 cells [2] = test: Serum starvation-induced apoptosis in PC12 cells, cell viability; conditions: serum starvation-induced apoptosis, PC12 cells; for viability at 1 µM / viability at 3 µM / viability at 10 µM / viability at 30 µM: Rattus norvegicus, PC-12; for viability at 1 µM: read-out: % Viability 1 μM; for viability at 3 µM: read-out: % Viability 3 μM; for viability at 10 µM: read-out: % Viability 10 μM; for viability at 30 µM: read-out: % Viability 30 μM
PC12 cells [3] = test: Etoposide-induced apoptosis in PC12 cells, cell viability; conditions: for viability at 1 µM / viability at 3 µM / viability at 10 µM / viability at 30 µM: Rattus norvegicus, PC-12; for viability at 1 µM: read-out: % Viability 1 μM; for viability at 3 µM: read-out: % Viability 3 μM; for viability at 10 µM: read-out: % Viability 10 μM; for viability at 30 µM: read-out: % Viability 30 μM; for protective activity in WT PC12 etoposide assay: WT PC12 cells
[4] = system: CLN3 knockdown mouse fibroblasts; test: Protective effect in CLN3 knock down mouse fibroblasts; conditions: FIG. 3B
Description: (§1) FIGS. 3A and 3B show the neuroprotective effect of selected compounds in phenotypic cell lines. In FIG. 3A, the protective effect is shown in siRNA CLN3 knock down PC12 cells. In FIG. 3B the protective effect is shown in wild-type (WT) and CLN3 knock down mouse fibroblasts. Values are represented as mean±SD. *P<0.05, **p<0.01, ***p<0.001 compared to vehicle control, unpaired student t test.
(§2) Protective Effect in Phenotypic Cell Lines. […] The inventors screened a number of compounds in both neuron-like CLN3 siRNA knock down PC12 cells (FIG. 3A) and CLN3 knockdown mouse fibroblasts (FIG. 3B) as phenotypic models of JNCL. […] FIGS. 3A and 3B show the neuroprotective effect of selected compounds in phenotypic cell lines. In FIG. 3A, the protective effect is shown in siRNA CLN3 knock down PC12 cells. In FIG. 3B the protective effect is shown in wild-type (WT) and CLN3 knock down mouse fibroblasts. Values are represented as mean±SD. *P<0.05, **p<0.01, ***p<0.001 compared to vehicle control, unpaired student t test. […] Selected derivatives show greater protective effect than flupirtine in patient lympoblast cells in CLN1, CLN2, CLN3, CLN6 and CLN8 disease (FIGS. 4A to 4E). FIGS. 4A to 4E show the percentage of patient lymphoblast cells (%), using Trypan Blue dye with Flupirtine (20 μM, vehicle %1 EtOH), drug 3 (20 μM, vehicle %1 EtOH), drug 5 (50 μM, vehicle %4 DMSO) or drug 6 (20 μM, vehicle %4 DMSO) at 24 h. CLN1 (FIG. 4A), CLN2 (FIG. 4B), CLN3 (FIG. 4C), CLN6 (FIG. 4D), and CLN8 (FIG. 4E).

[5] = system: CLN3 siRNA knock down PC12 cells; test: Protective effect in siRNA CLN3 knock down PC12 cells; conditions: FIG. 3A
Description: as §1, §2

[6] = 1 μM compound, vehicle 55.04 ± 8.99
[7] = 1 μM compound, etoposide-induced apoptosis, PC12 cells
[8] = 3 μM compound, etoposide-induced apoptosis, PC12 cells
[9] = 10 μM compound, etoposide-induced apoptosis, PC12 cells
[10] = 30 μM compound, etoposide-induced apoptosis, PC12 cells

Row | Compound | amelioration of reactive oxygen species (ROS) (PC12 cells [1]) | viability at 1 µM (PC12 cells [2]; [6]) [%] | viability at 3 µM (PC12 cells [2]; 3 μM compound) [%] | viability at 10 µM (PC12 cells [2]; 10 μM compound) [%] | viability at 30 µM (PC12 cells [2]; 30 μM compound) [%] | viability at 1 µM (PC12 cells [3]; [7]) [%] | viability at 3 µM (PC12 cells [3]; [8]) [%] | viability at 10 µM (PC12 cells [3]; [9]) [%] | viability at 30 µM (PC12 cells [3]; [10]) [%] | protective activity in WT PC12 etoposide assay (PC12 cells [3]) | protective activity [4] | protective activity [5] | % Viability 1 μM (PC12 cells [2]; [6]) [%] | % Viability 3 μM (PC12 cells [2]; 3 μM compound) [%] | % Viability 10 μM (PC12 cells [2]; 10 μM compound) [%] | % Viability 30 μM (PC12 cells [2]; 30 μM compound) [%] | % Viability 1 μM (PC12 cells [3]; [7]) [%] | % Viability 3 μM (PC12 cells [3]; [8]) [%] | % Viability 10 μM (PC12 cells [3]; [9]) [%] | % Viability 30 μM (PC12 cells [3]; [10]) [%]
1 | Nc1nc(NCc2ccc(F)cc2)ccc1NC(=O)OCc1ccccc1 [NK-10-1, Benzyl 6-(4-fluorobenzylamino)-2-aminopyridin-3-ylcarbamate] | no amelioration of reactive oxygen species (ROS) | 93.4 ± 12.4 | 90.4 ± 11.2 | 92.7 ± 12.8 | 96.1 ± 15.3 | 60.1 ± 7.91 | 82 ± 4.43 | 66.2 ± 6.26 | 57.4 ± 2.24 | greater neuroprotective activity | greater activity than flupirtine | greater activity than flupirtine | – | – | – | – | – | – | – | –
2 | C=CCOC(=O)Nc1ccc(NCc2ccc(Cl)cc2)nc1N [JG-4-5] | – | 72.3 ± 1.45 | 95.2 ± 2.41 | 70.2 ± 9.45 | 71.1 ± 8.61 | 87.2 ± 19.8 | 79.7 ± 7.48 | 84.3 ± 13.2 | 80.4 ± 24.1 | – | – | – | – | – | – | – | – | – | – | –
3 | CCOC(=O)Nc1ccc(NCc2cccc(C(F)(F)F)c2)nc1N [NK-16-3, Ethyl 6-(3-(trifluoromethyl)benzylamino)-2-aminopyridin-3-ylcarbamate] | – | 83.6 ± 14.3 | 80.7 ± 8.11 | 86.9 ± 9.07 | 84.2 ± 16.1 | 59.9 ± 13.8 | 68.2 ± 7.5 | 60.4 ± 19.4 | 46.4 ± 12.8 | – | – | – | – | – | – | – | – | – | – | –
4 | Nc1ccc(N(Cc2ccc(F)cc2)C(=O)OCc2ccccc2)cc1N [NK-22-6] | – | 68.1 ± 8.86 | 82.5 ± 10.5 | 74.5 ± 8.48 | 37.4 ± 4.98 | 69.1 ± 20.1 | 100 ± 5.4 | 98.9 ± 7.93 | 78.6 ± 23 | – | – | – | – | – | – | – | – | – | – | –
5 | C=CCOC(=O)Nc1ccc(NCc2cccc(C(F)(F)F)c2)nc1N [NK-16-6, Allyl 6-(3-(trifluoromethyl)benzylamino)-2-aminopyridin-3-ylcarbamate] | – | 77.1 ± 12.1 | 87.8 ± 10 | 92 ± 13 | 74.5 ± 11.9 | 78 ± 37.1 | 107 ± 2.3 | 101 ± 9.58 | 87.6 ± 21.9 | provides greater activity | – | – | – | – | – | – | – | – | – | –
6 | COC(=O)Nc1ccc(NCc2cccc(C(F)(F)F)c2)nc1N [NK-16-4, Methyl 6-(3-(trifluoromethyl)benzylamino)-2-aminopyridin-3-ylcarbamate] | – | 92.1 ± 10.2 | 88 ± 8.56 | 97.8 ± 9.35 | 97.6 ± 1800 | 46.7 ± 3.26 | 41.3 ± 10.1 | 28.6 ± 2.14 | 37 ± 3.91 | – | – | – | – | – | – | – | – | – | – | –
7 | 2-chloroethyl 6-(4-fluorobenzylamino)-2-aminopyridin-3-ylcarbamate [NK-23-1] | – | – | – | – | – | – | – | – | – | – | – | – | 84.07 ± 11.85 | 83.62 ± 5.88 | 100.15 ± 15.84 | 106.47 ± 15.46 | 54.01 ± 13.43 | 53.92 ± 6.37 | 41.79 ± 4.38 | 40.77 ± 6.98
8 | CC(C)COC(=O)Nc1ccc(NCc2ccc(F)cc2)nc1N [NK-8-1, Isobutyl 6-(4-fluorobenzylamino)-2-aminopyridin-3-ylcarbamate] | – | 67.9 ± 12.6 | 77.4 ± 11.7 | 89.7 ± 6.68 | 88.3 ± 10.8 | 57.9 ± 22.4 | 62.9 ± 2.98 | 46.5 ± 3.36 | 56.1 ± 0.67 | – | – | – | – | – | – | – | – | – | – | –
